Source: patent US20110093959A1, “CRYPTOTIS PARVA SCREENING MODEL FOR ANTIEMETIC POTENTIAL” (priority 2008, published 2011)
Values joined by “and” are separate entries in the source; they are usually repeats but may differ in a detail not shown here. Equal values may be shown once.

How the values were obtained:
[1] = test system: substance P tissue levels; assay: Substance P tissue levels after CIS (EIA); type: in vivo, Cryptotis parva
Description: (§1) These parameters were used in our neurochemical studies. Prior to experimentation, shrews were habituated to the laboratory environment as described for the behavioral studies. […] Subgroups of each treatment were sacrificed by rapid decapitation at either 2 hr or 33 hr post-injection.
Preliminary sample preparation procedures were carried out to optimize detection conditions in accord with our published methods (Darmani et al., 2008). […] As proteases can be also deactivated by heat, at basic pH and in the presence of EDTA (Darmani et al., 2008), the entire intestine was immediately immersed in a 70° C. preheated for 5 min, 5 ml solution of normal saline containing […] EDTA at pH 8.0 in accordance to published methods (Darmani et al., 2008). Each sample was allowed to cool down naturally to room temperature and then each gut was thrice flushed and rinsed with 5 ml of the cited saline solution. Then, each gut was dissected and the duodenum and jejunum samples were placed separately in test tubes containing 1 ml assay buffer. The dissected frontal cortex and brainstem samples were placed in different test tubes containing 0.5 ml assay buffer. Each sample was homogenized using a tissue tearer (Biospec) set at level 5 for 15 sec. The homogenates were then centrifuged at 17,000×g for 15 min at 4° C. The supernatants were obtained and saved at […] until used for the EIA detection of SP. Samples were analyzed for SP using the “Correlate-EIA” kit from Assay Designs using a microplate reader.
(§2) When a significant dose and exposure interaction was found, then simple effects at a particular emesis phase was tested via a one-way ANOVA. Neurochemical data were initially analyzed by two-way analysis of variance (ANOVA) with drug dose (0 mg/kg and 10 mg/kg) and exposure time (2 hr and 33 hr) as factors. […] For each statistical test, a P value of<0.05 was necessary to achieve statistical significance.

[2] = test system: 5-HT, 5-HIAA, dopamine and HVA tissue levels; assay: Monoamine and metabolite tissue levels after CIS (HPLC-ECD); type: in vivo, Cryptotis parva; settings: for increase in brainstem 5-HT tissue level vs vehicle: CIS 10 mg/kg i.p.; for frontal cortex 5-HIAA level: not significantly different from vehicle
Description: as §1
Brains were rapidly removed and dissected on an ice-cold petri dish, the frontal cortex and brainstem were immediately frozen on dry-ice and stored at […] until analysis. Likewise, each gut was rapidly removed and washed with ice-cold saline three times prior to sectioning into succeeding 2 cm portions starting from the end of the stomach (duodenal and jejunal sections, respectively), followed by rapid freezing as described above. Each frontal cortex, brainstem and intestinal sample was respectively homogenized (tissue tearer, setting 5 sec for 15 sec) in 1 ml, 2 ml, or 3 ml ice-cold 0.2 M perchloric acid respectively containing 0.3 M ethylenediamine-tetraacetic acid disodium (EDTA). A 0.1 ml portion of each homogenate was removed for protein analysis. The protein concentration was determined by the use of BCA protein assay kit (Pierce; Rockford, Ill.). Then, homogenates were centrifuged at 40,000 g for 30 min at 4° C. to precipitate protein. The supernatant was filtered through a 0.2 μm nylon filter in a microcentrifuge tube at 1,500 g for 10 min at 4° C. A 10 μl aliquot of each filtered supernatant was assayed for the presence of monoamines and their metabolites.
Monoamines and their metabolites were analyzed by high performance liquid chromatography with electrochemical detection (HPLC-ECD) based upon our established method (Darmani et al., 2003). Separation of 5-HT, dopamine and their corresponding metabolites (5-HIAA and HVA) from other electroactive compounds was achieved on a 10 cm×3.2 mm RP-C18 column (ODS 3 um packing; BAS Inc., W. Lafayette, Ind.) and a mobile phase containing 0.15 M chloroacetic acid, 0.12 M sodium hydroxide, 0.18 mM ethylenediamine-tetraacetic acid disodium (EDTA), 1.1 mM sodium octane sulfonic acid and 5% acetonitrile. The monoamines and their metabolites were separated and measured through the cited column via a Shumadzu L-ECD-6A detector, connected to a Shimadzu LC-10 AD pump and a C-R7Ae chromatopac integrator (Kyoto, Japan). The glassy carbon working electrode was set at a potential of 650 mV relative to an Ag/AgCl reference electrode. The detection limit for dopamine and 5-HT were 2 and 5 pg respectively, based on a signal to noise ratio of 3:1. Peak heights of unknowns were compared to the mean peak heights of a 200 pg standard solution (containing 5-HT, dopamine, 5-HIAA and HVA) which were run daily after every fifth tissue supernatant sample. The intestinal HVA concentrations could not be determined due to an unknown interfering peak in the gut tissue eluates.
as §2

[3] = CIS 10 mg/kg, 2 hour (immediate phase)
[4] = CIS 10 mg/kg, 33 hour (delayed phase)
[5] = CIS 0 and 10 mg/kg, 2 and 33 hour

SMILES: N.N.[Cl][Pt][Cl] [CIS, cis-platinum(II)diamine dichloride]
- duodenal SP tissue levels ([1]; CIS 10 mg/kg, 2 and 33 hour): failed to exhibit a significant effect
- frontal cortex SP tissue levels vs vehicle ([1]; CIS 10 mg/kg, 2 hour): no significant difference
- increase in brainstem SP levels vs vehicle [1, 3]: 1396%
- increase in jejunal SP levels vs vehicle [1, 3]: 333%
- decrease in frontal cortex SP levels vs vehicle ([1]; CIS 10 mg/kg, 33 hour): 39.2%
- increase in brainstem SP levels vs vehicle [1, 4]: 956%
- increase in jejunal SP levels vs vehicle [1, 4]: 226.5%
- brainstem mean SP level lower at 33 hour than at 2 hour ([1]; CIS groups): 100%
- brainstem dopamine levels [2, 5]: no overall significant effect
- duodenum dopamine levels [2, 5]: no overall significant effect
- frontal cortex serotonin levels [2, 5]: no significant overall effect
- duodenal tissue concentration of 5-HIAA ([2]; CIS 10 mg/kg): not significantly altered
- increase in jejunal dopamine concentration ([2]; CIS 10 mg/kg at 33 hour vs 0 mg/kg control at 2 hour): 121%
- increase in jejunal dopamine concentration ([2]; CIS 10 mg/kg at 33 hour vs 0 mg/kg control at 33 hour): 171%
- frontal cortex HVA at 33 hour less than at 2 hour ([2]; CIS 10 mg/kg dose): 32.4%
- jejunal 5-HT at 2 hour smaller than at 33 hours ([2]; CIS 10 mg/kg dose): 114.5%
- brainstem 5-HT level at 33 hour greater than at 2 hour ([2]; CIS 10 mg/kg group): 33.9%
- brainstem HVA at 33 hour greater than at 2 hour ([2]; CIS 10 mg/kg group): 37%
- increase in brainstem 5-HT tissue level vs vehicle ([2]; 2 hour): 68.2%
- increase in brainstem 5-HT tissue level vs vehicle ([2]; 33 hour): 25%
- duodenal 5-HT concentrations ([2]; CIS 10 mg/kg, 2 and 33 hour): not significantly altered
- frontal cortex dopamine tissue level vs control ([2]; CIS 10 mg/kg, 2 hour): significant increase
- increase in brainstem 5-HIAA level vs vehicle ([2]; CIS 10 mg/kg, 2 hour): 43.8%
- increase in brainstem HVA levels vs control ([2]; CIS 10 mg/kg, 2 hour): 65.5%
- increase in jejunal 5-HIAA concentration vs control ([2]; CIS 10 mg/kg, 2 hour): 32.4%
- reduction of jejunal 5-HT tissue concentration vs control ([2]; CIS 10 mg/kg, 2 hour): 49.1%
- frontal cortex 5-HIAA level ([2]; CIS 10 mg/kg, 2 hour): 1.1±0.07
- decrease in frontal cortex HVA concentration vs vehicle ([2]; CIS 10 mg/kg, 33 hour): 35.9%
- increase in brainstem 5-HIAA level vs vehicle ([2]; CIS 10 mg/kg, 33 hour): 26.7%
- increase of jejunal 5-HT tissue concentration vs control ([2]; CIS 10 mg/kg, 33 hour): ~50% and 41.8%
- frontal cortex 5-HIAA level ([2]; CIS 10 mg/kg, 33 hour): 0.91±0.11
- increase in brainstem HVA levels vs control ([2]; CIS 10 mg/kg, 33 hours): 27.7%
- duodenal 5-HT at 33 hours greater than at 2 hour ([2]; CIS-treated animals): 48.5%
- brainstem 5-HIAA at 33 hour greater than at 2 hour ([2]; CIS-treated group): 49.2%
